Results on 15 compounds are retold here after publication PMC7252619 (PLoS ONE, 2020).

Common to all, as to assay: Kinase activity test (ReactionBiology), % enzyme activity relative to DMSO
What all share (type): biochemical

One experiment addresses T1, CK1d (Homo sapiens, UniProt P48730).
T1 construct: purchased ReactionBiology
The following applies: CK1d; for % Enzyme Activity (relative to DMSO controls), Data 1: replicate Data 1; for % Enzyme Activity (relative to DMSO controls), Data 2: replicate Data 2.

For a further experiment, the target named is VEGFR2 (Homo sapiens, UniProt P35968). Also on record: purchased ReactionBiology. The following applies: VEGFR2; for % Enzyme Activity (relative to DMSO controls), Data 1: replicate Data 1; for % Enzyme Activity (relative to DMSO controls), Data 2: replicate Data 2.
Chain of VEGFR2 (P35968 20-1356): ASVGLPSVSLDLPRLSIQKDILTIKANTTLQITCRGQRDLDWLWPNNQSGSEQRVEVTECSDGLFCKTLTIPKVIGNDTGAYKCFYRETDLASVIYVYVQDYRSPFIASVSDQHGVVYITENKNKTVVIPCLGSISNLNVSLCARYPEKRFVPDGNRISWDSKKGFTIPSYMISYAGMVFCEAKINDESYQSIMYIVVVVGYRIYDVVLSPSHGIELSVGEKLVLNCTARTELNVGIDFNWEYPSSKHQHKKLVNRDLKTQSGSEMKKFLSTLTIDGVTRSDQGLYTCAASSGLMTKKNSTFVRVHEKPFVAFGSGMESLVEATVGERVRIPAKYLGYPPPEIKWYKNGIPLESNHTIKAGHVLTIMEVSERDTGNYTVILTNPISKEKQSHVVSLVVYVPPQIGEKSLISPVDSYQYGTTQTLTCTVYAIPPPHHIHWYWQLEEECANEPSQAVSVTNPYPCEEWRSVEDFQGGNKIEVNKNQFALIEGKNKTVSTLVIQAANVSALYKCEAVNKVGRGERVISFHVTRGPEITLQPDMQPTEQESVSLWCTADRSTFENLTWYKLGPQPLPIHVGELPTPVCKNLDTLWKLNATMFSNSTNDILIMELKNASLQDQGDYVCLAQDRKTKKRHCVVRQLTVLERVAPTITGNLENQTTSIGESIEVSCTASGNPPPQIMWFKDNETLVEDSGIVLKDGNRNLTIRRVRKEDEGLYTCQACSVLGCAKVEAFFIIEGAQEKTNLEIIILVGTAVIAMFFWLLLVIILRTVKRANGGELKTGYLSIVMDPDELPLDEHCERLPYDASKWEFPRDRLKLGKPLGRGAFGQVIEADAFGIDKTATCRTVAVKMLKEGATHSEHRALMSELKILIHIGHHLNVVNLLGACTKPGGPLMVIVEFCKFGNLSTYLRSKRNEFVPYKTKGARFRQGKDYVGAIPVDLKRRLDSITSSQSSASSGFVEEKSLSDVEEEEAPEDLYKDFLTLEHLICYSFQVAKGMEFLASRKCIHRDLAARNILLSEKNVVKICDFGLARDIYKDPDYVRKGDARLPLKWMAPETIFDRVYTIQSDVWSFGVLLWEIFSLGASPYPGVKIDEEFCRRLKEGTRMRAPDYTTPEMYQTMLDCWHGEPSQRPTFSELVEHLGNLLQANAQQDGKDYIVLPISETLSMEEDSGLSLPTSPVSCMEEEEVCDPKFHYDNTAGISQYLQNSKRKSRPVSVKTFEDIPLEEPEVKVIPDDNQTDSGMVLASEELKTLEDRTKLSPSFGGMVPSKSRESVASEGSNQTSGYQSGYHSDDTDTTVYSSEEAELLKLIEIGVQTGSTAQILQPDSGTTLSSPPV
In the next experiment the target is T2, DAPK1 (Homo sapiens, UniProt P53355).
T2 construct: purchased ReactionBiology
T2 sequence (P53355 whole entry): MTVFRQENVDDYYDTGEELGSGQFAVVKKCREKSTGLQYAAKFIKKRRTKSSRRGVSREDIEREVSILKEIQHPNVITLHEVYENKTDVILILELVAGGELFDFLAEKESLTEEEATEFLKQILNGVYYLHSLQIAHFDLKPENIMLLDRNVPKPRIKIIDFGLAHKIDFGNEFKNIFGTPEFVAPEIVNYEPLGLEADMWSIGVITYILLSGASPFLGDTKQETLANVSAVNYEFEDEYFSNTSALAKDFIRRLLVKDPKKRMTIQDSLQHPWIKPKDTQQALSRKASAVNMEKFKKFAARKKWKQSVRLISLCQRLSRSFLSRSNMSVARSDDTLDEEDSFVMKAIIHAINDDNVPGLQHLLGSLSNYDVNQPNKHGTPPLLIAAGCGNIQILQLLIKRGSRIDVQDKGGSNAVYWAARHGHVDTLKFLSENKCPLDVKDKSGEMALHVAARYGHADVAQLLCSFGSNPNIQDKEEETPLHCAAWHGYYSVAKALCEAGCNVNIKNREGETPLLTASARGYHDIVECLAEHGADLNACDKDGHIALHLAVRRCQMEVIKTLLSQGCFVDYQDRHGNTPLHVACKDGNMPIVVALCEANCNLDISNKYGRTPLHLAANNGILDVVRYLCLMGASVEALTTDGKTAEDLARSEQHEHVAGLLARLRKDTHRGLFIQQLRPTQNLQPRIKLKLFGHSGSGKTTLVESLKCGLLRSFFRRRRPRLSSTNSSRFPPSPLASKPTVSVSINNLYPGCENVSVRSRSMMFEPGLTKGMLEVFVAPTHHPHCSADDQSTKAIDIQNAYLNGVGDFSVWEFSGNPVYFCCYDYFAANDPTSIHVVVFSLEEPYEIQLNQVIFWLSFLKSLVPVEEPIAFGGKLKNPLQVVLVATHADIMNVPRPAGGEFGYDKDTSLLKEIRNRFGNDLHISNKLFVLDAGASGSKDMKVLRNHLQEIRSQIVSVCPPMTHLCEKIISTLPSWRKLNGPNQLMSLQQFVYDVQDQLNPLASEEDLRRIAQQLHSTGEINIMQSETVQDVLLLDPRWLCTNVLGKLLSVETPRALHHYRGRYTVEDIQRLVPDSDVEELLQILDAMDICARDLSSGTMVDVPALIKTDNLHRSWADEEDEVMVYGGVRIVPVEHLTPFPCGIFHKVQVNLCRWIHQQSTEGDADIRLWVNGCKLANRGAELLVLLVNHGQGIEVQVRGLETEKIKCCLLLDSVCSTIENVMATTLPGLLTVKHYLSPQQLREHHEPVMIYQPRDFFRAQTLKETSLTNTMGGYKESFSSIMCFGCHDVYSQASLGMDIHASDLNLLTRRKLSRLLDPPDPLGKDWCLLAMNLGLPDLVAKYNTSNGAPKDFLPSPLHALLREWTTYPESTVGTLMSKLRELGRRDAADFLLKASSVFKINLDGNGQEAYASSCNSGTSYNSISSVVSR
The following applies: DAPK1.

Where two headings read alike, the source gives them in different places.

T1 sequence (P48730 whole entry): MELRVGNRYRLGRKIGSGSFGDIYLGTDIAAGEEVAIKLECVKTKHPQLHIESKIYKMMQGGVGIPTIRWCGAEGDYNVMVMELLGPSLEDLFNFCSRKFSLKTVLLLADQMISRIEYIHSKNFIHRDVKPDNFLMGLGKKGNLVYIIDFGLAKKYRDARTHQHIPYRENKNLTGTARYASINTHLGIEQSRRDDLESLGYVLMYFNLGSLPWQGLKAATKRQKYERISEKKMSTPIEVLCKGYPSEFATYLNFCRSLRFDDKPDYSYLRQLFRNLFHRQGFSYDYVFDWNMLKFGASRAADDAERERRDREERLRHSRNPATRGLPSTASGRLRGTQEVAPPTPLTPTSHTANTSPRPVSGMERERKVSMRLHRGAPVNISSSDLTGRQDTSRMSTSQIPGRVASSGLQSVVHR

On to `CN1CC(=O)N2[C@H](c3ccc4c(c3)OCO4)c3[nH]c4ccccc4c3C[C@@H]2C1=O` [Tadalafil], for which the “% Enzyme Activity (relative to DMSO controls), Average” value is listed as 103.78% at CK1d (1 uM), 108.37% on CK1d (10 uM), 102.42% at VEGFR2 (1 uM) and 97.95% on VEGFR2 (10 uM). In addition, the “% Enzyme Activity (relative to DMSO controls), Data 1” value at CK1d (1 uM) was determined as 105.89%; at CK1d (10 uM), 107.23%; on VEGFR2 (1 uM), 103.18%; at VEGFR2 (10 uM) it was 98.92%. Moreover, the “% Enzyme Activity (relative to DMSO controls), Data 2” value at CK1d (1 uM) is recorded as 101.67%; at CK1d (10 uM), 109.5%; on VEGFR2 (1 uM), 101.65%; on VEGFR2 (10 uM), 96.97%.

Consider `CN(C)CCOc1ccc(/C(=C(/CCCl)c2ccccc2)c2ccccc2)cc1` [Toremifene, reference compound], for which the remaining activity at 1 µM at DAPK1 (1 uM, Average, read-out: % Enzyme Activity (relative to DMSO controls), Average) stood at 90.4%; on DAPK1 (1 uM, replicate Data 1, read-out: % Enzyme Activity (relative to DMSO controls), Data 1), 70.4%; on DAPK1 (1 uM, replicate Data 2, read-out: % Enzyme Activity (relative to DMSO controls), Data 2) it was 110%; on DAPK1 (compound 1μM, relative to DMSO controls, read-out: % Enzyme activity at 1μM), 90.4%. The remaining activity at 10 µM was found to be 14.8% on DAPK1 (10 uM, Average, read-out: % Enzyme Activity (relative to DMSO controls), Average); 14.9% on DAPK1 (10 uM, replicate Data 1, read-out: % Enzyme Activity (relative to DMSO controls), Data 1); 14.6% on DAPK1 (10 uM, replicate Data 2, read-out: % Enzyme Activity (relative to DMSO controls), Data 2); 14.8% on DAPK1 (compound 10μM, relative to DMSO controls, read-out: % Enzyme activity at 10μM).

As to `NC[C@H](O)c1ccc(O)c(O)c1` [Norepinephrine], the “% Enzyme Activity (relative to DMSO controls), Average” value at DAPK1 (1 uM, Average) is recorded as 102.77%; on DAPK1 (10 uM, Average), 92.90%. Moreover, the “% Enzyme Activity (relative to DMSO controls), Data 1” value on DAPK1 (1 uM, replicate Data 1) was found to be 101.72%; on DAPK1 (10 uM, replicate Data 1), 93.2%. Besides, the “% Enzyme Activity (relative to DMSO controls), Data 2” value on DAPK1 (1 uM, replicate Data 2) worked out at 103.82%; on DAPK1 (10 uM, replicate Data 2), 92.59%.

For `C[C@@H]1O[C@@H]1P(=O)(O)O` [Fosfomycin], the “% Enzyme Activity (relative to DMSO controls), Average” value at DAPK1 (1 uM, Average) is given as 101.25%; on DAPK1 (10 uM, Average), 92.74%. Further, the “% Enzyme Activity (relative to DMSO controls), Data 1” value on DAPK1 (1 uM, replicate Data 1) turned out to be 100.97%; at DAPK1 (10 uM, replicate Data 1) it was 95%. The “% Enzyme Activity (relative to DMSO controls), Data 2” value on DAPK1 (1 uM, replicate Data 2) is 101.52%; on DAPK1 (10 uM, replicate Data 2), 90.48%.

Regarding Acarbose, the “% Enzyme Activity (relative to DMSO controls), Average” value is on record as 112.14% on DAPK1 (1 uM, Average) and 96.08% on DAPK1 (10 uM, Average). Also, the “% Enzyme Activity (relative to DMSO controls), Data 1” value at DAPK1 (1 uM, replicate Data 1) was determined as 116.25%; on DAPK1 (10 uM, replicate Data 1), 99.05%. The “% Enzyme Activity (relative to DMSO controls), Data 2” value at DAPK1 (1 uM, replicate Data 2) came to 108.03%; at DAPK1 (10 uM, replicate Data 2) it was 93.1%.

With `COc1ccc2c(c1)c(CC(=O)O)c(C)n2C(=O)c1ccc(Cl)cc1` [Iomethacin], the “% Enzyme Activity (relative to DMSO controls), Average” value at CK1d (1 uM) turned out to be 102.15%; on CK1d (10 uM) it was 95.39%; on VEGFR2 (1 uM) it was 105.43%; on VEGFR2 (10 uM), 102.46%. Further, the “% Enzyme Activity (relative to DMSO controls), Data 1” value on CK1d (1 uM) came out at 102.08%; on CK1d (10 uM) it was 98.78%; on VEGFR2 (1 uM) it was 105.61%; on VEGFR2 (10 uM), 106.14%. For the same compound, the “% Enzyme Activity (relative to DMSO controls), Data 2” value on CK1d (1 uM) is reported as 102.21%; on CK1d (10 uM), 92%; at VEGFR2 (1 uM), 105.25%; at VEGFR2 (10 uM), 98.78%.

As to `COC(=O)N[C@H](C(=O)N[C@@H](Cc1ccccc1)[C@@H](O)CN(Cc1ccc(-c2ccccn2)cc1)NC(=O)[C@@H](NC(=O)OC)C(C)(C)C)C(C)(C)C` [Atazanavir], the “% Enzyme Activity (relative to DMSO controls), Average” value on DAPK1 (1 uM, Average) came out at 98.48%; at DAPK1 (10 uM, Average), 74.66%. For the same compound, the “% Enzyme Activity (relative to DMSO controls), Data 1” value is on record as 95.12% on DAPK1 (1 uM, replicate Data 1) and 73.05% at DAPK1 (10 uM, replicate Data 1). Besides, the “% Enzyme Activity (relative to DMSO controls), Data 2” value worked out at 101.84% on DAPK1 (1 uM, replicate Data 2) and 76.27% at DAPK1 (10 uM, replicate Data 2).

For the compound `Cc1ccnc2c1NC(=O)c1cccnc1N2C1CC1` [Nevirapine], the “% Enzyme Activity (relative to DMSO controls), Average” value is 112.57% on DAPK1 (1 uM, Average) and 95.31% on DAPK1 (10 uM, Average). For the same compound, the “% Enzyme Activity (relative to DMSO controls), Data 1” value is on record as 101.89% on DAPK1 (1 uM, replicate Data 1) and 95.47% on DAPK1 (10 uM, replicate Data 1). In addition, the “% Enzyme Activity (relative to DMSO controls), Data 2” value on DAPK1 (1 uM, replicate Data 2) was 123.25%; on DAPK1 (10 uM, replicate Data 2), 95.14%.

As to `O=c1[nH]cc(F)c(=O)[nH]1` [Fluorouracil], the “% Enzyme Activity (relative to DMSO controls), Average” value on CK1d (1 uM) was found to be 104.91%; on CK1d (10 uM) it was 106.01%; at VEGFR2 (1 uM) it was 113.72%; at VEGFR2 (10 uM), 105.92%. Further, the “% Enzyme Activity (relative to DMSO controls), Data 1” value is reported as 106.12% on CK1d (1 uM), 110.21% at CK1d (10 uM), 118.24% on VEGFR2 (1 uM) and 109.47% on VEGFR2 (10 uM). The “% Enzyme Activity (relative to DMSO controls), Data 2” value was determined as 103.69% at CK1d (1 uM), 101.8% at CK1d (10 uM), 109.2% at VEGFR2 (1 uM) and 102.36% on VEGFR2 (10 uM).

Take `Cn1c(=O)c2[nH]cnc2n(C)c1=O` [Theophylline]: the “% Enzyme Activity (relative to DMSO controls), Average” value is listed as 109.44% at DAPK1 (1 uM, Average) and 98.91% on DAPK1 (10 uM, Average). Further, the “% Enzyme Activity (relative to DMSO controls), Data 1” value on DAPK1 (1 uM, replicate Data 1) is given as 109.64%; on DAPK1 (10 uM, replicate Data 1), 100.03%. Besides, the “% Enzyme Activity (relative to DMSO controls), Data 2” value at DAPK1 (1 uM, replicate Data 2) stood at 109.23%; on DAPK1 (10 uM, replicate Data 2) it was 97.79%.

Regarding `C=C[C@H]1CN2CC[C@H]1C[C@@H]2[C@@H](O)c1ccnc2ccc(OC)cc12` [Quinidine], the “% Enzyme Activity (relative to DMSO controls), Average” value at DAPK1 (1 uM, Average) is given as 102.25%; at DAPK1 (10 uM, Average), 96.54%. Also, the “% Enzyme Activity (relative to DMSO controls), Data 1” value at DAPK1 (1 uM, replicate Data 1) stood at 101.97%; at DAPK1 (10 uM, replicate Data 1), 95.41%. The “% Enzyme Activity (relative to DMSO controls), Data 2” value at DAPK1 (1 uM, replicate Data 2) is 102.52%; on DAPK1 (10 uM, replicate Data 2) it was 97.67%.

Take `O=C1C(O)=C([C@H]2CC[C@H](c3ccc(Cl)cc3)CC2)C(=O)c2ccccc21` [Atovaquone]: the “% Enzyme Activity (relative to DMSO controls), Average” value at DAPK1 (1 uM, Average) was 96.25%; at DAPK1 (10 uM, Average) it was 91.80%. In addition, the “% Enzyme Activity (relative to DMSO controls), Data 1” value on DAPK1 (1 uM, replicate Data 1) stood at 96.85%; at DAPK1 (10 uM, replicate Data 1), 90.59%. Besides, the “% Enzyme Activity (relative to DMSO controls), Data 2” value at DAPK1 (1 uM, replicate Data 2) stood at 95.64%; on DAPK1 (10 uM, replicate Data 2) it was 93%.

`CNCCCN1c2ccccc2CCc2ccccc21` [Desipramine]: the results for the “% Enzyme Activity (relative to DMSO controls), Average” value at CK1d (10 uM), on VEGFR2 (1 uM) and at VEGFR2 (10 uM) were 133.63%, 96.96% and 89.29%, respectively.

As to `OC(Cn1cncn1)(Cn1cncn1)c1ccc(F)cc1F` [Fluconazole], the “% Enzyme Activity (relative to DMSO controls), Average” value was 100.65% at DAPK1 (1 uM, Average) and 95.87% on DAPK1 (10 uM, Average). The “% Enzyme Activity (relative to DMSO controls), Data 1” value is recorded as 103.85% at DAPK1 (1 uM, replicate Data 1) and 97.86% on DAPK1 (10 uM, replicate Data 1). Moreover, the “% Enzyme Activity (relative to DMSO controls), Data 2” value at DAPK1 (1 uM, replicate Data 2) was 97.44%; on DAPK1 (10 uM, replicate Data 2) it was 93.87%.

Take `CN[C@H]1CC[C@@H](c2ccc(Cl)c(Cl)c2)c2ccccc21` [Sertraline]: the “% Enzyme Activity (relative to DMSO controls), Average” value is on record as 106.53% at CK1d (1 uM), 163.39% on CK1d (10 uM), 106.32% at VEGFR2 (1 uM) and 105.91% at VEGFR2 (10 uM). The “% Enzyme Activity (relative to DMSO controls), Data 1” value at CK1d (1 uM) is on record as 105.95%; at CK1d (10 uM), 106.22%; on VEGFR2 (1 uM) it was 107.12%; at VEGFR2 (10 uM), 107.3%. Further, the “% Enzyme Activity (relative to DMSO controls), Data 2” value was determined as 107.11% at CK1d (1 uM), 220.55% on CK1d (10 uM), 105.51% on VEGFR2 (1 uM) and 104.52% on VEGFR2 (10 uM).
